Experimental data as given in PMC11947619, “Molecular mechanism of Mad2 conformational conversion promoted by the Mad2‐interaction motif of Cdc20” (Protein Science : A Publication of the Protein Society, 2025).
Each block holds one compound with its values, some of them ahead of it. Residues, ends and D or L forms follow the SMILES beside them.

Target: T1, O‐Mad2^R133A (Homo sapiens, UniProt Q13257, R133A)
T1 construct: unable to collect equivalent data for full‐length O‐Mad2^R133A; His6-DoubleStrep-TEV (N); made in house
Experiment: Time-resolved NMR: O-Mad2 to C-Mad2 conversion of O-Mad2^R133A with MIM peptides
Assay type: biochemical
Settings: 100 μM O-Mad2^R133A, 25°C
Experimental: FIGURE 2 NMR fingerprinting of Mad2. (a) Structural orientations of Trp75 (on the αB helix) and Trp167 (on the “safety‐belt”) in Mad2 produce distinct indole NH resonances. […] NMR spectra for O‐Mad2^R133A and “empty” C‐Mad2^L13A/R133A and C‐Mad2^R133A:Cdc20^MIM‐111‐138 are from Fischer et al. ([2022]) (c) Mad2 conversion rates vary with different MIM peptides. Conversion was traced over 24 h at 25°C using the Trp75 and Trp167 side‐chain resonances as reporters. MIM peptides were added at two‐fold molar excess to Mad2 (100 μM). Each spectrum required 12 min of acquisition time, therefore the 15 min time‐points represent the earliest spectra in the time‐resolved series. The schematics show the conformation of Mad2 as indicated by the tryptophan side‐chain resonances. A black tick marks when conversion is considered complete. NMR data for O‐Mad2^R133A with and without Cdc20^MIM‐111‐138 shown are from Fischer et al. ([2022]). In the case of full‐length Cdc20, the MIM sequence is sequestered by an auto‐inhibitory intramolecular interaction within Cdc20 itself, which prevents it from being readily accessible for binding to C‐Mad2 (Piano et al., [2021]). Conversely, isolated MIM peptides lack this auto‐inhibitory mechanism, allowing them to bind directly to C‐Mad2 without obstruction.
To understand whether Mad2 conversion times are modulated by different C‐Mad2 ligands, we used time‐resolved NMR to determine the conversion time of 100 μM O‐Mad2^R133A at 25°C. The indole NH resonances of Trp75 and Trp167 were used as reporters (Figure 2b). […] In contrast, conversion took ~24 h in the absence of Cdc20^MIM‐111‐138 peptide (Fischer et al., [2022]) (Figures 2c and S4b). […] Other MIM peptides also accelerated the O‐Mad2 to C‐Mad2 conversion. […] In “empty” C‐Mad2, the β7/β8 hairpin is displaced to expose the β6 strand for pairing with the MIM peptide (Luo et al., [2004]) (Figure S3a).
Mad2 constructs were expressed in BL21 Star (DE3) cells (Thermo Fisher Scientific), co‐transformed with a pRARE plasmid (Merck). Uniformly labeled proteins were expressed in M9 minimal media (6 g/L Na2HPO4, 3 g/L KH2PO4, 0.5 g/L NaCl) supplemented with 1.7 g/L yeast nitrogen base without NH4Cl and amino acids (Sigma Y1251). 1 g/L ^15NH4Cl and 4 g/L glucose were supplemented for ^15N labeling. For ^13C/^15N double‐labeled samples, unlabeled glucose was replaced with 3 g/L ^13C‐glucose. Protein expression was induced with 0.4 mM IPTG at 16°C overnight. All samples were purified as previously described (Luo & Yu, [2005]; Mapelli et al., [2007]) and all O‐Mad2 variants were kept at 4°C during purification to prevent conversion to C‐Mad2. Prior to all NMR experiments, proteins were dialyzed into 20 mM HEPES, pH 7.0, 100 mM NaCl, 1 mM TCEP. ^13C/^15N‐labeled samples were used for backbone assignment, and all other experimental data were acquired on ^15N‐labeled samples. Proteins were kept on ice before NMR experiments to ensure all O‐Mad2 remained in the open state. For “bound” C‐Mad2, MIM peptides were added in 1:2 molar excess to ensure complete conversion.
All peptides were synthesized by Cambridge Research Biochemicals, UK. Peptides were dialyzed into 20 mM HEPES, pH 7.0, 100 mM NaCl, and 1 mM TCEP for NMR experiments. The sequences for the peptides used in this study are: Cdc20^MIM‐111‐138 ([…]), Cdc20^MIM‐123‐137 (FDVEEAKILRLSGKP), Cdc20^MIM‐123‐152 ([…]), Cdc20^MIM‐138‐152 (QNAPEGYQNRLKVLY), Mad1^MIM‐529‐550 ([…]), and MBP1^MIM (SWYSYPPPQRAV). […]

T1 sequence (Q13257 whole entry R133A): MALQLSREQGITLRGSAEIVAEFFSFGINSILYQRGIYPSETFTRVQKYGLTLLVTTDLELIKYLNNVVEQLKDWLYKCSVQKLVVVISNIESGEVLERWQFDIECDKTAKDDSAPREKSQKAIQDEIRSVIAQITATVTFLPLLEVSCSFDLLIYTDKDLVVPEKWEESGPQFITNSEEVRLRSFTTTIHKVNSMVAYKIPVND

acceleration of O-Mad2 to C-Mad2 conversion vs absence of MIM peptide (two-fold molar excess peptide, without peptide ~24 h): ~50 fold
Compound: EHQKAWALNLNGFDVEEAKILRLSGKPQ [Cdc20^MIM‐111‐138, Cdc20^MIM peptide spanning Cdc20 residues 111–138]

Compound: CC[C@H](C)[C@H](NC(=O)[C@H](CCCCN)NC(=O)[C@H](C)NC(=O)[C@H](CCC(=O)O)NC(=O)[C@H](CCC(=O)O)NC(=O)[C@@H](NC(=O)[C@H](CC(=O)O)NC(=O)[C@@H](N)Cc1ccccc1)C(C)C)C(=O)N[C@@H](CC(C)C)C(=O)N[C@@H](CCCNC(=N)N)C(=O)N[C@@H](CC(C)C)C(=O)N[C@@H](CO)C(=O)NCC(=O)N[C@@H](CCCCN)C(=O)N1CCC[C@H]1C(=O)N[C@@H](CCC(N)=O)C(=O)N[C@@H](CC(N)=O)C(=O)N[C@@H](C)C(=O)N1CCC[C@H]1C(=O)N[C@@H](CCC(=O)O)C(=O)NCC(=O)N[C@@H](Cc1ccc(O)cc1)C(=O)N[C@@H](CCC(N)=O)C(=O)N[C@@H](CC(N)=O)C(=O)N[C@@H](CCCNC(=N)N)C(=O)N[C@@H](CC(C)C)C(=O)N[C@@H](CCCCN)C(=O)N[C@H](C(=O)N[C@@H](CC(C)C)C(=O)N[C@@H](Cc1ccc(O)cc1)C(=O)O)C(C)C [Cdc20^MIM‐123‐152] (H-FDVEEAKILRLSGKPQNAPEGYQNRLKVLY-OH; N-terminus and C-terminus assumed)
Mad2 conversion rate/efficiency, in words (time-resolved NMR, compared with other Cdc20^MIM peptides): more efficient at triggering Mad2 conversion

Compound: QNAPEGYQNRLKVLY [Cdc20^MIM‐138‐152, peptide of Cdc20 residues 138–152]
induction of Mad2 conversion after two hours / binding, in words (time-resolved NMR, two hours): failed to induce Mad2 conversion after two hours, and therefore alone are insufficient to bind Mad2
